Laboratory results taken from ChEMBL document CHEMBL1201862, “PubChem BioAssay data set” (2004).
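Five concentrations, 48 hours, 96-well plates. GI50: concentration for 50% inhibition of growth.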 Activity calls are given as the source filed them. Cut-off read from the data, not from the text of the source: active = GI50 up to about 1.1 µM and inactive = higher.

Experiments:
Assay in all cases: inhibition of tumour cell growth, NCI panel, 48 h
SW-620 = system: SW-620
HCT-15 = system: HCT-15
OVCAR-5 = system: OVCAR-5
SN12C = system: SN12C
NCI-H23 = system: NCI-H23
SK-MEL-28 = system: SK-MEL-28
UACC-257 = system: UACC-257
ACHN = system: ACHN
NCI-H522 = system: NCI-H522
MOLT-4 = system: MOLT-4
MDA-N = system: MDA-N
RXF 393 = system: RXF 393
HL-60 = system: HL-60
HOP-92 = system: HOP-92
M14 = system: M14
KM12 = system: KM12
NCI-H460 = system: NCI-H460
MDA-MB-435 = system: MDA-MB-435
SF-539 = system: SF-539
DU-145 = system: DU-145
CAKI-1 = system: CAKI-1
OVCAR-3 = system: OVCAR-3
COLO 205 = system: COLO 205
HOP-62 = system: HOP-62
BT-549 = system: BT-549
SR = system: SR
U-251 = system: U-251
TK-10 = system: TK-10
SF-295 = system: SF-295
T47D = system: T47D
SNB-19 = system: SNB-19
SNB-75 = system: SNB-75
SK-MEL-5 = system: SK-MEL-5
MCF7 = system: MCF7
Malme-3M = system: Malme-3M
RPMI-8226 = system: RPMI-8226
UO-31 = system: UO-31
SF-268 = system: SF-268
NCI-H226 = system: NCI-H226
EKVX = system: EKVX
UACC-62 = system: UACC-62
A549 = system: A549
NCI/ADR-RES = system: NCI/ADR-RES
HCT-116 = system: HCT-116
SK-OV-3 = system: SK-OV-3
K562 = system: K562
IGROV-1 = system: IGROV-1
OVCAR-4 = system: OVCAR-4
OVCAR-8 = system: OVCAR-8
PC-3 = system: PC-3
HT-29 = system: HT-29
786-0 = system: 786-0
A498 = system: A498
Hs-578T = system: Hs-578T
MDA-MB-231 = system: MDA-MB-231
CCRF-CEM = system: CCRF-CEM
HCC 2998 = system: HCC 2998
SK-MEL-2 = system: SK-MEL-2
LOX IMVI = system: LOX IMVI

Measured: GI50

CN(C)CCNS(=O)(=O)c1ccc(N)cc1
> 100 µM: HCT-15
inactive: SW-620 > 100 µM | OVCAR-5 > 100 µM | SN12C > 100 µM | NCI-H23 > 100 µM | SK-MEL-28 > 100 µM | UACC-257 > 100 µM | ACHN > 100 µM | NCI-H522 > 100 µM | MOLT-4 > 100 µM | MDA-N > 100 µM | RXF 393 > 100 µM | HL-60 > 100 µM | HOP-92 > 100 µM | M14 > 100 µM | KM12 > 100 µM | NCI-H460 > 100 µM | MDA-MB-435 > 100 µM | SF-539 > 100 µM | DU-145 > 100 µM | CAKI-1 > 100 µM | OVCAR-3 17.2 µM | COLO 205 > 100 µM | HOP-62 18.5 µM | BT-549 > 100 µM | SR > 100 µM | U-251 > 100 µM | TK-10 > 100 µM | SF-295 > 100 µM | T47D > 100 µM | SNB-19 > 100 µM | SNB-75 > 100 µM | SK-MEL-5 > 100 µM | MCF7 > 100 µM | Malme-3M > 100 µM | RPMI-8226 > 100 µM | UO-31 > 100 µM | SF-268 > 100 µM | NCI-H226 > 100 µM | EKVX > 100 µM | UACC-62 > 100 µM | A549 > 100 µM | NCI/ADR-RES > 100 µM | HCT-116 > 100 µM | SK-OV-3 > 100 µM | K562 > 100 µM | IGROV-1 > 100 µM | OVCAR-4 > 100 µM | OVCAR-8 > 100 µM | PC-3 19.9 µM | HT-29 > 100 µM | 786-0 > 100 µM | A498 > 100 µM | Hs-578T > 100 µM | MDA-MB-231 > 100 µM | CCRF-CEM > 100 µM | HCC 2998 > 100 µM | SK-MEL-2 18 µM

C=C1CCC2CC1[C@@H](C(=O)c1c[nH]c3ccccc13)NC2(C)C (stereo partly drawn)
inactive: SW-620 > 37.5 µM | OVCAR-5 > 37.5 µM | SN12C > 37.5 µM | NCI-H23 > 37.5 µM | SK-MEL-28 > 37.5 µM | UACC-257 > 37.5 µM | ACHN > 37.5 µM | NCI-H522 > 37.5 µM | MOLT-4 > 37.5 µM | MDA-N > 37.5 µM | RXF 393 > 37.5 µM | HL-60 34.8 µM | HOP-92 13.2 µM | KM12 > 37.5 µM | NCI-H460 > 37.5 µM | MDA-MB-435 > 37.5 µM | SF-539 > 37.5 µM | DU-145 > 37.5 µM | CAKI-1 8.51 µM | OVCAR-3 > 37.5 µM | COLO 205 35 µM | HOP-62 > 37.5 µM | BT-549 > 37.5 µM | LOX IMVI > 37.5 µM | SR 33 µM | U-251 > 37.5 µM | TK-10 > 37.5 µM | SF-295 > 37.5 µM | T47D 30.6 µM | SNB-75 > 37.5 µM | SK-MEL-5 > 37.5 µM | MCF7 > 37.5 µM | Malme-3M > 37.5 µM | RPMI-8226 > 37.5 µM | UO-31 29.5 µM | SF-268 > 37.5 µM | NCI-H226 > 37.5 µM | EKVX > 37.5 µM | UACC-62 18.7 µM | A549 > 37.5 µM | NCI/ADR-RES > 37.5 µM | HCT-116 > 37.5 µM | K562 21.9 µM | IGROV-1 > 37.5 µM | OVCAR-4 > 37.5 µM | OVCAR-8 > 37.5 µM | PC-3 19.5 µM | HT-29 29.7 µM | 786-0 > 37.5 µM | A498 > 37.5 µM | Hs-578T > 37.5 µM | MDA-MB-231 > 37.5 µM | CCRF-CEM > 37.5 µM | HCC 2998 10.7 µM | SK-MEL-2 27.1 µM
> 37.5 µM: HCT-15

O=C(/C=C1\Nc2ccccc2N\C1=C/C(=O)c1ccc(F)cc1)c1ccc(F)cc1
inactive: SW-620 > 100 µM | OVCAR-5 > 100 µM | SN12C > 100 µM | NCI-H23 > 100 µM | SK-MEL-28 > 100 µM | UACC-257 > 100 µM | ACHN > 100 µM | NCI-H522 > 100 µM | MOLT-4 > 100 µM | MDA-N > 100 µM | RXF 393 > 100 µM | HL-60 46.5 µM | HOP-92 > 100 µM | M14 > 100 µM | KM12 > 100 µM | NCI-H460 53.7 µM | MDA-MB-435 > 100 µM | SF-539 > 100 µM | DU-145 > 100 µM | CAKI-1 > 100 µM | OVCAR-3 48.2 µM | COLO 205 > 100 µM | HOP-62 61 µM | BT-549 > 100 µM | LOX IMVI > 100 µM | SR 54.3 µM | U-251 73.6 µM | TK-10 > 100 µM | T47D 63 µM | SNB-19 > 100 µM | SNB-75 > 100 µM | SK-MEL-5 > 100 µM | MCF7 15.1 µM | Malme-3M > 100 µM | RPMI-8226 51.4 µM | UO-31 > 100 µM | SF-268 > 100 µM | NCI-H226 > 100 µM | EKVX > 100 µM | UACC-62 > 100 µM | A549 > 100 µM | NCI/ADR-RES > 100 µM | HCT-116 > 100 µM | K562 > 100 µM | IGROV-1 > 100 µM | OVCAR-4 > 100 µM | OVCAR-8 > 100 µM | PC-3 > 100 µM | HT-29 > 100 µM | 786-0 61.4 µM | A498 > 100 µM | Hs-578T > 100 µM | MDA-MB-231 > 100 µM | CCRF-CEM 25.5 µM | HCC 2998 63.2 µM | SK-MEL-2 > 100 µM
> 100 µM: HCT-15

O=C1c2ccc(O)cc2OC(c2cc(O)c(O)c(O)c2)C1O (stereo not drawn) [DIHYDROBINETIN]
33.7 µM: HCT-15
inactive: SW-620 25 µM | OVCAR-5 58.2 µM | SN12C 20.4 µM | NCI-H23 34.5 µM | SK-MEL-28 46.8 µM | UACC-257 34.8 µM | ACHN 25.8 µM | NCI-H522 24.8 µM | MOLT-4 19.1 µM | MDA-N 18.4 µM | RXF 393 > 100 µM | HL-60 19.9 µM | HOP-92 > 100 µM | M14 > 100 µM | KM12 26.7 µM | NCI-H460 19.8 µM | MDA-MB-435 19.8 µM | SF-539 21.5 µM | DU-145 47.3 µM | CAKI-1 53.8 µM | OVCAR-3 47.9 µM | COLO 205 32.4 µM | HOP-62 35.5 µM | BT-549 20.5 µM | LOX IMVI 19.1 µM | SR 20.5 µM | U-251 22.5 µM | TK-10 23.6 µM | SF-295 21.8 µM | T47D 37.8 µM | SNB-19 41.4 µM | SK-MEL-5 33 µM | MCF7 25.7 µM | Malme-3M > 100 µM | RPMI-8226 17.8 µM | UO-31 67.8 µM | SF-268 34.1 µM | NCI-H226 39.1 µM | EKVX 19 µM | UACC-62 30.1 µM | A549 > 100 µM | NCI/ADR-RES 25.1 µM | HCT-116 22 µM | SK-OV-3 > 100 µM | IGROV-1 18 µM | OVCAR-4 37.9 µM | OVCAR-8 22 µM | PC-3 > 100 µM | HT-29 23.4 µM | 786-0 23.8 µM | A498 28.1 µM | Hs-578T 70.1 µM | MDA-MB-231 21.1 µM | CCRF-CEM 24.1 µM | HCC 2998 31.6 µM | SK-MEL-2 33.1 µM
